Source: patent US10059713B2 (Takeda Pharmaceutical Company Limited, priority 2014, dated 2018)

What follows are compounds tested against human GPR43 (Homo sapiens (Human), UniProt O15552) (assay: Ca-Flux functional assay: determination of agonist/positive allosteric modulator (PAM) activity). Details: CHO-K1 Gα16 cells stably expressing human GPR43; compound added with EC20 sodium acetate; intracellular Ca2+ by FLIPR; does not distinguish agonist from PAM.
Type: cell-based
In short: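 Agonist or PAM activity read as intracellular Ca2+ rise by FLIPR after adding compound plus EC20 acetate, acetate EC20 set from a prior curve. Cells: CHO-K1 Gα16 with stable human GPR43. EC50 from ten-point half-log curves starting 10 μM.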

Sequence of human GPR43 (O15552 whole entry): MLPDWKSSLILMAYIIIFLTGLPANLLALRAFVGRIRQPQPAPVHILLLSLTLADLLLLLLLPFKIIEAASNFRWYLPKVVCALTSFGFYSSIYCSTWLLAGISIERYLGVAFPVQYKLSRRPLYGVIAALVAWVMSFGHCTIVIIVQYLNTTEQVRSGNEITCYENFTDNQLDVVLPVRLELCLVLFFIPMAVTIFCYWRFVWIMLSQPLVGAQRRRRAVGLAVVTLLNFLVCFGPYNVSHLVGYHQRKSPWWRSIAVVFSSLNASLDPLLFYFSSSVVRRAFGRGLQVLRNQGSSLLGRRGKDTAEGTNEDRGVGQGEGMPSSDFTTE

SMILES	EC50 [nM]
Cc1nc(N2CCCC(C)C2)c2[nH]c(N)c(S(=O)(=O)c3ccccc3)c2n1 (centres unmarked) [Example 110, 7-(benzenesulfonyl)-2-methyl-4-(3-methylpiperidin-1-yl)-5H-pyrrolo[3,2-d]pyrimidin-6-amine]	32
Cc1nc(C2=CCCCC2)c2[nH]c(N)c(S(=O)(=O)c3ccccc3)c2n1 [Example 19, 7-(benzenesulfonyl)-4-(cyclohex-1-en-1-yl)-2-methyl-5H-pyrrolo[3,2-d]pyrimidin-6-amine]	28
Nc1[nH]c2c(C3CCCC3)ncnc2c1S(=O)(=O)c1ccccc1F [Example 88, 4-cyclopentyl-7-(2-fluorobenzenesulfonyl)-5H-pyrrolo[3,2-d]pyrimidin-6-amine]	21
Cc1nc(N2CCO[C@H](C(F)(F)F)C2)c2[nH]c(N)c(S(=O)(=O)c3cc(F)ccc3F)c2n1 [Example 292]	3
Cc1nc(N2CCC(F)(F)CC2)c2[nH]c(N)c(S(=O)(=O)c3ccccc3)c2n1 [Example 142, 7-(benzenesulfonyl)-4-(4,4-difluoropiperidin-1-yl)-2-methyl-5H-pyrrolo[3,2-d]pyrimidin-6-amine]	20
CC1CN(c2ncnc3c(Sc4ccccc4)c(N)[nH]c23)CCO1 (centres unmarked) [Example 236, 4-(2-methylmorpholin-4-yl)-7-(phenylsulfanyl)-5H-pyrrolo[3,2-d]pyrimidin-6-amine]	42
Nc1[nH]c2c(OCC3CCOCC3)ncnc2c1S(=O)(=O)c1ccccc1 [Example 169, 7-(benzenesulfonyl)-4-(oxan-4-ylmethoxy)-5H-pyrrolo[3,2-d]pyrimidin-6-amine]	1890
Nc1[nH]c2c(-c3cccnc3)ncnc2c1S(=O)(=O)c1ccccc1 [Example 67, 7-(benzenesulfonyl)-4-(pyridin-3-yl)-5H-pyrrolo[3,2-d]pyrimidin-6-amine]	3170
Nc1[nH]c2c(C3CCCCC3)ncnc2c1S(=O)(=O)C1CCCCC1 [Example 51, 7-(cyclohexanesulfonyl)-4-cyclohexyl-5H-pyrrolo[3,2-d]pyrimidin-6-amine]	162
Nc1[nH]c2c(-c3ccccc3)ncnc2c1S(=O)(=O)c1ccccc1 [Example 9, 7-(benzenesulfonyl)-4-phenyl-5H-pyrrolo[3,2-d]pyrimidin-6-amine]	48
Nc1[nH]c2c(C3=CCC(F)(F)CC3)ncnc2c1S(=O)(=O)c1ccccc1 [Example 127, 7-(benzenesulfonyl)-4-(4,4-difluorocyclohex-1-en-1-yl)-5H-pyrrolo[3,2-d]pyrimidin-6-amine]	36
Nc1[nH]c2c(OCC3CCCOC3)ncnc2c1S(=O)(=O)c1ccccc1 (centres unmarked) [Example 157, 7-(benzenesulfonyl)-4-(oxan-3-ylmethoxy)-5H-pyrrolo[3,2-d]pyrimidin-6-amine]	1580
Cc1nc(N2CCO[C@H](C(F)(F)F)C2)c2[nH]c(N)c(S(=O)(=O)c3ccc(F)cc3F)c2n1 [Example 283, 7-(2,4-difluorobenzenesulfonyl)-2-methyl-4-[(2S)-2-(trifluoromethyl)morpholin-4-yl]-5H-pyrrolo[3,2-d]pyrimidin-6-amine]	1
Cc1nc(N2CCOC(C)C2)c2[nH]c(N)c(S(=O)(=O)c3ccc(F)cc3F)c2n1 (centres unmarked) [Example 262, 7-(2,4-difluorobenzenesulfonyl)-2-methyl-4-(2-methylmorpholin-4-yl)-5H-pyrrolo[3,2-d]pyrimidin-6-amine]	5
CC1CN(c2ncnc3c(S(=O)(=O)c4cc(F)cc(F)c4)c(N)[nH]c23)CCO1 (centres unmarked) [Example 147, 7-(3,5-difluorobenzenesulfonyl)-4-(2-methylmorpholin-4-yl)-5H-pyrrolo[3,2-d]pyrimidin-6-amine]	88
Nc1[nH]c2c(O[C@H]3CCOC3)ncnc2c1S(=O)(=O)c1ccccc1 [Example 158, 7-(benzenesulfonyl)-4-[(3S)-oxolan-3-yloxy]-5H-pyrrolo[3,2-d]pyrimidin-6-amine]	3070
Cc1nc(OC2CCC2)c2[nH]c(N)c(S(=O)(=O)c3ccccc3)c2n1 [Example 252, 7-(benzenesulfonyl)-4-cyclobutoxy-2-methyl-5H-pyrrolo[3,2-d]pyrimidin-6-amine]	67
